Results reported in US12673954B2 (BRISTOL-MYERS SQUIBB COMPANY, priority 2021, dated 2026).

Assays:
[1] = tested on: NF-κB pathway, THP1-Dual™ cells; experiment: STING reporter assay in THP1-Dual cells, NF-κB pathway (SEAP, QUANTI-Blue); assay type: cell-based, human; settings: Homo sapiens, THP1-Dual, 20 h, THP1-Dual cells, 10% human plasma, 20 hours; SEAP; 100% activation = 100 μM cGAMP; read-out: NFkB (EC50 μM)
Method in brief: (§1)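 Activation normalised between DMSO-only baseline and 100 μM cGAMP maximum, after 20 h compound exposure (starting at 100 μM final) at 37° C, 5% CO2. Supernatant SEAP (QUANTI-Blue, OD620) reports NF-κB; secreted luciferase (QUANTI-Luc, RLU at 5 min) reports IRF.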

[2] = tested on: IRF pathway, THP1-Dual™ cells; experiment: STING reporter assay in THP1-Dual cells, IRF pathway (Lucia luciferase, QUANTI-Luc); assay type: cell-based, human; settings: Homo sapiens, THP1-Dual, 20 h, THP1-Dual cells, 10% human plasma, 20 hours; Lucia luciferase; 100% activation = 100 μM cGAMP; read-out: IRF (EC50 μM)
Method in brief: as §1

| Structure (SMILES) | EC50 [1] [µM] | EC50 [2] [µM] |
| --- | --- | --- |
| COCCOCCOC(=O)c1cc(Cl)cc2cc(CNC(=O)c3cnn4cccnc34)oc12 [EXAMPLE 258, 2-(2-Methoxyethoxy)ethyl 5-chloro-2-((pyrazolo[1,5-a]pyrimidine-3-carboxamido)methyl)benzofuran-7-carboxylate] | 3.5 | 3 |
| CC(=O)OCOC(=O)c1cc(Cl)cc2cc(CNC(=O)c3cnn4cccnc34)oc12 [EXAMPLE 259, Acetoxymethyl 5-chloro-2-((13yrazole[1,5-a]pyrimidine-3-carboxamido)methyl)benzofuran-7-carboxylate] | 2.2 | 2.3 |
| CCOC(=O)OCOC(=O)c1cc(Cl)cc2cc(CNC(=O)c3cnn4cccnc34)oc12 [EXAMPLE 260, ((Ethoxycarbonyl)oxy)methyl 5-chloro-2-((pyrazolo[1,5-a]pyrimidine-3-carboxamido)methyl)benzofuran-7-carboxylate] | 0.82 | 1 |
| CC(C)OC(=O)c1cc(Cl)cc2cc(Cn3cnc4ccncc4c3=O)oc12 [EXAMPLE 262, Isopropyl 5-chloro-2-((4-oxopyrido[4,3-d]pyrimidin-3(4H)-yl)methyl)benzofuran-7-carboxylate] | 18 | 14 |
| CCOc1ncncc1C(=O)NCc1cc2cc(Cl)cc(C(=O)O[C@H](C)C(F)(F)F)c2o1 [EXAMPLE 263, (R)-1,1,1-trifluoropropan-2-yl 5-chloro-2-((4-ethoxypyrimidine-5-carboxamido)methyl)benzofuran-7-carboxylate] | 5.2 | 4.8 |
| O=C(NCc1cc2cc(Cl)cc(C(=O)OCC(F)(F)F)c2o1)c1cncc2[nH]cnc12 [EXAMPLE 264, 2,2,2-Trifluoroethyl 2-((3H-imidazo[4,5-c]pyridine-7-carboxamido)methyl)-5-chlorobenzofuran-7-carboxylate] | 1.7 | 1.7 |
| C[C@@H](OC(=O)c1cc(Cl)cc2cc(CNC(=O)c3cncc4[nH]cnc34)oc12)C(F)(F)F [EXAMPLE 265, (R)-1,1,1-Trifluoropropan-2-yl 2-((3H-imidazo[4,5-c]pyridine-7-carboxamido)methyl)-5-chlorobenzofuran-7-carboxylate] | 0.82 | 0.84 |
| C[C@H](NC(=O)c1cnn2cccnc12)c1cc2cc(Cl)cc(C(=O)OCC(F)(F)F)c2o1 [EXAMPLE 266, 2,2,2-Trifluoroethyl (S)-5-chloro-2-(1-(pyrazolo[1,5-a]pyrimidine-3-carboxamido)ethyl)benzofuran-7-carboxylate] | 2.6 | 3.1 |
| C[C@H](NC(=O)c1cnn2cccnc12)c1cc2cc(Cl)cc(C(=O)OC3CC(F)(F)C3)c2o1 [EXAMPLE 267, 3,3-Difluorocyclobutyl (S)-5-chloro-2-(1-(pyrazolo[1,5-a]pyrimidine-3-carboxamido)ethyl)benzofuran-7-carboxylate] | 6.6 | 5.8 |
| C[C@H](NC(=O)c1cnn2cccnc12)c1cc2cc(Cl)cc(C(=O)O[C@H](C)C(F)(F)F)c2o1 [EXAMPLE 268, (R)-1,1,1-Trifluoropropan-2-yl 5-chloro-2-((S)-1-(pyrazolo[1,5-a]pyrimidine-3-carboxamido)ethyl)benzofuran-7-carboxylate] | 5.6 | 6.1 |
| O=C(OCC(F)(F)F)c1cc(Br)cc2cc(CNC(=O)c3cnn4cccnc34)oc12 [EXAMPLE 269, 2,2,2-Trifluoroethyl 5-bromo-2-((pyrazolo[1,5-a]pyrimidine-3-carboxamido)methyl)benzofuran-7-carboxylate] | 1.1 | 1.1 |
| O=C(Cc1cc(Br)cc2cc(CNC(=O)c3cnn4cccnc34)oc12)OCC(F)(F)F [EXAMPLE 270, 2,2,2-Trifluoroethyl 2-(5-bromo-2-((pyrazolo[1,5-a]pyrimidine-3-carboxamido)methyl)benzofuran-7-yl)acetate] | 36 | 30 |
| Cc1cc(C(=O)O[C@H](C)C(F)(F)F)c2oc(CNC(=O)c3cnn4cccnc34)cc2c1 [EXAMPLE 271, (R)-1,1,1-Trifluoropropan-2-yl 5-methyl-2-((pyrazolo[1,5-a]pyrimidine-3-carboxamido)methyl)-benzofuran-7-carboxylate] | 0.91 | 0.8 |
| Cc1cc(C(=O)O[C@@H](C)C(F)(F)F)c2oc(CNC(=O)c3cnn4cccnc34)cc2c1 [EXAMPLE 272, (S)-1,1,1-Trifluoropropan-2-yl 5-methyl-2-((pyrazolo[1,5-a]pyrimidine-3-carboxamido)methyl)-benzofuran-7-carboxylate] | 2.2 | 2.2 |
| Cc1cc(C(=O)OC(C)C)c2oc(CNC(=O)c3cnn4cccnc34)cc2c1 [EXAMPLE 273, Isopropyl 5-methyl-2-((pyrazolo[1,5-a]pyrimidine-3-carboxamido)methyl)-benzofuran-7-carboxylate] | 0.75 | 0.7 |
| Cc1cc(C(=O)OC(CF)CF)c2oc(CNC(=O)c3cnn4cccnc34)cc2c1 [EXAMPLE 274, 1,3-Difluoropropan-2-yl 5-methyl-2-((pyrazolo[1,5-a]pyrimidine-3-carboxamido)methyl)-benzofuran-7-carboxylate] | 0.83 | 0.8 |
| Cc1cc(C(=O)OC2CC(F)(F)C2)c2oc(CNC(=O)c3cnn4cccnc34)cc2c1 [EXAMPLE 275, 3,3-Difluorocyclobutyl 5-methyl-2-((pyrazolo[1,5-a]pyrimidine-3-carboxamido)methyl)-benzofuran-7-carboxylate] | 0.72 | 0.94 |
| Cc1cc(C(=O)O[C@H](C)C(F)(F)F)c2oc(C(C)NC(=O)c3cnn4cccnc34)cc2c1 (stereo partly drawn) [EXAMPLE 276, (R)-1,1,1-Trifluoropropan-2-yl 5-methyl-2-(1-(pyrazolo[1,5-a]pyrimidine-3-carboxamido)ethyl)benzofuran-7-carboxylate] | 3.4 | 3 |
| Cc1cc(C(=O)O[C@@H](C)C(F)(F)F)c2oc(C(C)NC(=O)c3cnn4cccnc34)cc2c1 (stereo partly drawn) [EXAMPLE 277, (S)-1,1,1-Trifluoropropan-2-yl 5-methyl-2-(1-(pyrazolo[1,5-a]pyrimidine-3-carboxamido)ethyl)benzofuran-7-carboxylate] | 16 | 13 |
| Cc1cc(CC(=O)OCC(F)(F)F)c2oc(CNC(=O)c3cnn4cccnc34)cc2c1 [EXAMPLE 278, 2,2,2-Trifluoroethyl 2-(5-methyl-2-((pyrazolo[1,5-a]pyrimidine-3-carboxamido)methyl)benzofuran-7-yl)acetate] | 5.5 | 6.6 |
| Cc1cc(CC(=O)O[C@H](C)C(F)(F)F)c2oc(CNC(=O)c3cnn4cccnc34)cc2c1 [EXAMPLE 279, (R)-1,1,1-Trifluoropropan-2-yl 2-(5-methyl-2-((pyrazolo[1,5-a]pyrimidine-3-carboxamido)methyl)benzofuran-7-yl)acetate] | 25 | 35 |
| COc1cc(C(=O)OCC(F)(F)F)c2oc(CNC(=O)c3cnn4cccnc34)cc2c1 [EXAMPLE 280, 2,2,2-Trifluoroethyl 5-methoxy-2-((pyrazolo[1,5-a]pyrimidine-3-carboxamido)methyl)benzofuran-7-carboxylate] | 2.4 | 2.5 |
| N#Cc1cc(C(=O)OCC(F)(F)F)c2oc(CNC(=O)c3cnn4cccnc34)cc2c1 [EXAMPLE 282, 2,2,2-Trifluoroethyl 5-cyano-2-((pyrazolo[1,5-a]pyrimidine-3-carboxamido)methyl)benzofuran-7-carboxylate] | 12 | 12 |
| O=C(OCC(F)(F)F)c1cc(C(F)(F)F)cc2cc(CNC(=O)c3cnn4cccnc34)oc12 [EXAMPLE 283, 2,2,2-Trifluoroethyl 2-((pyrazolo[1,5-a]pyrimidine-3-carboxamido)methyl)-5-(trifluoromethyl)benzofuran-7-carboxylate] | 0.52 | 0.4 |
| C[C@@H](OC(=O)c1c(F)c(F)cc2cc(CNC(=O)c3cnn4cccnc34)oc12)C(F)(F)F [EXAMPLE 284, (R)-1,1,1-Trifluoropropan-2-yl 5,6-difluoro-2-((pyrazolo[1,5-a]pyrimidine-3-carboxamido)methyl)benzofuran-7-carboxylate] | 6.3 | 9.6 |
| C[C@@H](OC(=O)c1c(F)ccc2cc(CNC(=O)c3cnn4cccnc34)oc12)C(F)(F)F [EXAMPLE 285, (R)-1,1,1-Trifluoropropan-2-yl 6-fluoro-2-((pyrazolo[1,5-a]pyrimidine-3-carboxamido)methyl)benzofuran-7-carboxylate] | 1.9 | 1.4 |
| O=C(OCC(F)(F)F)c1c(F)ccc2cc(CNC(=O)c3cnn4cccnc34)oc12 [EXAMPLE 286, 2,2,2-Trifluoroethyl 6-fluoro-2-((pyrazolo[1,5-a]pyrimidine-3-carboxamido)methyl)benzofuran-7-carboxylate] | 2.5 | 2.7 |
| Cc1ccc2cc(CNC(=O)c3cnn4cccnc34)oc2c1C(=O)OCC(F)(F)F [EXAMPLE 287, 2,2,2-Trifluoroethyl 6-methyl-2-((pyrazolo[1,5-a]pyrimidine-3-carboxamido)methyl)benzofuran-7-carboxylate] | 18 | 12 |
| C[C@@H](OC(=O)c1cc(F)cc2c(Cl)c(CNC(=O)c3cnn4cccnc34)oc12)C(F)(F)F [EXAMPLE 288, (R)-1,1,1-Trifluoropropan-2-yl 3-chloro-5-fluoro-2-((pyrazolo[1,5-a]pyrimidine-3-carboxamido)methyl)benzofuran-7-carboxylate] | 0.36 | 0.36 |
